Data published in ChEMBL document CHEMBL1201862, “PubChem BioAssay data set” (2004).
Active and inactive are the calls of the source. For most assays here, no stated cut-off is given here; in the data, actives have a measured EC50 and inactives only a lower limit.

How the values were obtained:
[1] = molecular target: T1, Heat shock factor protein 1 (Mus musculus, UniProt P38532); test: inhibition of MG132-induced HSE-luciferase signal, confirmation, cell-based, NIH3T3, luminescence, dose retest (AID 2382); assay type: functional;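 further: NIH3T3 fibroblasts with HSF1-driven luciferase reporter stressed by proteasome inhibitor MG132; luminescence from HSF1-driven luciferase expression after 8 hours of MG132 stress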
T1 sequence (P38532 whole entry): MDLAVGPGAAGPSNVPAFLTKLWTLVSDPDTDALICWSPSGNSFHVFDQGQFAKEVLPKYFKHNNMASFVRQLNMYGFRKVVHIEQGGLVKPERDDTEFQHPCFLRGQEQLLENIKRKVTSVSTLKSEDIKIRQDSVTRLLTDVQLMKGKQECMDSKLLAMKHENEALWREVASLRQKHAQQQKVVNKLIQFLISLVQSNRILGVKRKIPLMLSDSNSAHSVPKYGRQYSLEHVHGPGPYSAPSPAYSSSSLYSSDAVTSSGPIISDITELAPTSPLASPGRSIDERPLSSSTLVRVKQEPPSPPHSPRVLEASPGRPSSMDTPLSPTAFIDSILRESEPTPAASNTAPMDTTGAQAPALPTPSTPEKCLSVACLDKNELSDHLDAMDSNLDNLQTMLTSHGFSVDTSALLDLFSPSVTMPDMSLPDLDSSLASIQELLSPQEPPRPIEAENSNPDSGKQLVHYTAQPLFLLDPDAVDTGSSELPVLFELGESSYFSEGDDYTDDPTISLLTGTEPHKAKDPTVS

[2] = cytotoxicity toward NIH3T3 fibroblasts, dose response, counter-screen, cell-based, ATP luminescence, mouse fibroblasts (AID 2010); assay type: functional;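 further: cells exposed to compound for about 90 hours before reading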
[3] = NIH-3T3 fibroblast cytotoxicity, dose response, cytotoxicity control, cell-based, fluorescence, Alamar Blue, secondary assay (AID 2327); assay type: functional;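 further: NIH-3T3 mouse fibroblasts cultured with fluconazole at 8 µg/mL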
[4] = C. albicans growth with fluconazole, confirmation, fluorescence, retest (AID 2467); assay type: functional, cell-based
[5] = inhibitors of intracellular T. cruzi replication, confirmation, NIH3T3 host cells, beta-gal luminescence (AID 2044); assay type: functional, cell-based;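 further: intracellular parasites grown in NIH/3T3 mouse fibroblasts as host cells; luminescent beta-galactosidase reporter signal from transgenic T. cruzi replicating inside host cells; inhibitors lower the luminescence signal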
[6] = molecular target: T2, Calpain-2 catalytic subunit (Sus scrofa, UniProt P43367); test: pig calpain II inhibitor potency, dose response, biochemical, fluorogenic peptide substrate (AID 1420); assay type: functional
T2 sequence (P43367 whole entry): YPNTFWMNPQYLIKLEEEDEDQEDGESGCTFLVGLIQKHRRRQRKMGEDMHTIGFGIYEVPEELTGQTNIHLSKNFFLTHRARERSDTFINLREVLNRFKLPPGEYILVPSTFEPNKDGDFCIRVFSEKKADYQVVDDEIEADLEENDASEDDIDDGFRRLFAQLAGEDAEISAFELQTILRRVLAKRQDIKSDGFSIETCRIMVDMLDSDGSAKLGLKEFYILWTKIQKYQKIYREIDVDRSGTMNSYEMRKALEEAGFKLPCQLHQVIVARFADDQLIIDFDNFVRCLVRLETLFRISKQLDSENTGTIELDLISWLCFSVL

[7] = molecular target: T3, RNA-binding protein pos-1 (Caenorhabditis elegans, UniProt G5EF15); test: inhibitors of POS-1/mex-3 RNA binding, dose response, biochemical, fluorescence polarization (AID 1964);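 further: purified POS-1 fused to maltose binding protein made in E. coli; potency of compounds blocking POS-1 binding to fluorescent RNA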
T3 sequence (G5EF15 whole entry): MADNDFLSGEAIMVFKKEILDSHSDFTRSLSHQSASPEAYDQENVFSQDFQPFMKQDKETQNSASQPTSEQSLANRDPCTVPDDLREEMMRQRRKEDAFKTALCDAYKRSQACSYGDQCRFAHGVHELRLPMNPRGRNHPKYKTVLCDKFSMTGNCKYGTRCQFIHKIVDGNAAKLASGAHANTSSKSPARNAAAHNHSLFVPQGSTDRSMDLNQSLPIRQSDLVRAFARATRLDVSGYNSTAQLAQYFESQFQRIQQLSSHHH

[8] = molecular target: T4, Zinc finger protein mex-5 (Caenorhabditis elegans, UniProt Q9XUB2); test: MEX-5/TCR-2 RNA interaction inhibitors, dose response, biochemical, C. elegans, fluorescence polarization (AID 1960)
T4 sequence (Q9XUB2 whole entry): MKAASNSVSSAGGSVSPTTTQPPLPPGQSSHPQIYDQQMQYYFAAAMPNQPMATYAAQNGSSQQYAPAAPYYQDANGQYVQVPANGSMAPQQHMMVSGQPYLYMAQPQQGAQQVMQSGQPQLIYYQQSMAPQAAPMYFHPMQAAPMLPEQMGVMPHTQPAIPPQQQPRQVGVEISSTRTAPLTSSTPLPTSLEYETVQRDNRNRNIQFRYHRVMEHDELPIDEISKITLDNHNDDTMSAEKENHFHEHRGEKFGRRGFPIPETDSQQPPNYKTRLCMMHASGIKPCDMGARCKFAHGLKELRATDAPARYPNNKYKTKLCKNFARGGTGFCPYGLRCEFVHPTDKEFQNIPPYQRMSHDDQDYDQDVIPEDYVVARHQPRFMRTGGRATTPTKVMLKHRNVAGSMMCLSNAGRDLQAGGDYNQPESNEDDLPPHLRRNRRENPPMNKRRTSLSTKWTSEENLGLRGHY

Cytochrome P450 2C9 = Cytochrome P450 2C9 (Homo sapiens, UniProt P11712)
H9c2 = test: cells; assay type: functional, cell-based; settings: Rattus norvegicus, H9c2, Myocardium;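 further: confirmatory concentration-response retest of ultra-high-throughput screening hits for modulation of myocardial damage; cell death induced by hydrogen peroxide oxidative stress; compound pretreatment for 60 min then peroxide exposure for 2 h; potency is for protecting the cells against peroxide damage rather than for killing them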
[9] = Luminescence Cell-Based Dose Response HTS to Identify Activators of Luciferase Translation or Activity in H4 […] Cells. [Related pubchem assays: 1829 (Project Summary), 1814 (Primary HTS)]; assay type: functional
[10] = Luminescence Cell-Based Dose Confirmation HTS to Identify Activators of 5'UTR Stem-Loop Driven Alpha-Synuclein mRNA Translation in H4 Neuroglioblastoma Cells. [Related pubchem assays: 1829 (Project Summary), 1814 (Primary HTS)]; assay type: functional
[11] = molecular target: T5, Corticotropin-releasing factor receptor 2/Corticotropin-releasing factor-binding protein (Homo sapiens, UniProt P24387+Q13324); test: activators of CRF receptor 2 with binding protein – uHTS hits, confirmation (AID 602473); assay type: functional; settings: read-out: EC50_Mean
T5 sequence (Q13324 whole entry): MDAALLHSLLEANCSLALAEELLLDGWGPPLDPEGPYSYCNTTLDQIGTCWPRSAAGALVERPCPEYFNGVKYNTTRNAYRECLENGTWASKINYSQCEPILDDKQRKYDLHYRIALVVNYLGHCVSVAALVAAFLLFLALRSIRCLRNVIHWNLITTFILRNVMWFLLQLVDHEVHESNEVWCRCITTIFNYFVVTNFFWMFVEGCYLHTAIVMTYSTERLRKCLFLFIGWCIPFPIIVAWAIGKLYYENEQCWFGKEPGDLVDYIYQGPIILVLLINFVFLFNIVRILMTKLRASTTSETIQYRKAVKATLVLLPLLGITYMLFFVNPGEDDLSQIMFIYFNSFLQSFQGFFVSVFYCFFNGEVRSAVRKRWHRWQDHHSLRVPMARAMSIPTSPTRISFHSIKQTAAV
T5 sequence (P24387 whole entry): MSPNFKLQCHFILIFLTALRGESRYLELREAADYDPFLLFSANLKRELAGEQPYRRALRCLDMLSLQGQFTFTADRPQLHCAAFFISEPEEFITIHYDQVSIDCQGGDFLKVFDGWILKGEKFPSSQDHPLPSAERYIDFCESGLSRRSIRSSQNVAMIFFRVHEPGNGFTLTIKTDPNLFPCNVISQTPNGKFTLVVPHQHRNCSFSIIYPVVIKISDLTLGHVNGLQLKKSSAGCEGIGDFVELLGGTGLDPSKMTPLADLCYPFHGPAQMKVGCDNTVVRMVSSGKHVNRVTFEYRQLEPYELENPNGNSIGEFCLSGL

[12] = molecular target: T5, Corticotropin-releasing factor receptor 2/Corticotropin-releasing factor-binding protein; test: Dose Response confirmation of uHTS hits for small molecule antagonists of the CRF-binding protein and CRF-R2 receptor complex.; assay type: functional; settings: read-out: IC50_Mean
H4 = test: Luminescence Cell-Based Dose Response HTS to Identify Activators of 5'UTR Stem-Loop Driven Prion Protein mRNA Translation in H4 Neuroglioblastoma Cells. [Related pubchem assays: 1829 (Project Summary), 1814 (Primary HTS)]; assay type: functional; settings: Homo sapiens

Cytochrome P450 2C9, sequence (P11712 whole entry): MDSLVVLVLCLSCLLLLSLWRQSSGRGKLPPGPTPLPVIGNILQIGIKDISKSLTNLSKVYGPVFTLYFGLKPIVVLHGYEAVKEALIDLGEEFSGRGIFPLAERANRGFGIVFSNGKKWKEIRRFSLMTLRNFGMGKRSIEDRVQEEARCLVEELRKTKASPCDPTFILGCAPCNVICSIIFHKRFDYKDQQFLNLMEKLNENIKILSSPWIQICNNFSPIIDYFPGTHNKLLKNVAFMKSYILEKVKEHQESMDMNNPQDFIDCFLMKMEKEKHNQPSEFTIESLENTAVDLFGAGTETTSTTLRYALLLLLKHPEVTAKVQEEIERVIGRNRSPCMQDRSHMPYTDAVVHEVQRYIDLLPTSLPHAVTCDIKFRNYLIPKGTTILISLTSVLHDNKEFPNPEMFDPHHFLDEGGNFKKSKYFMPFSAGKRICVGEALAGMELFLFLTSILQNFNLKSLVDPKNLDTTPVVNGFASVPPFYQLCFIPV

O=C(NC(=S)Nc1ccc2oc(=O)ccc2c1)c1cc2ccccc2o1
EC50 [1]: > 195 µM (not active)

Cc1ccc(Nc2nc(CSc3nnc(-c4ccncc4)n3-c3ccccc3C)cs2)cc1
EC50 [2]: > 60 µM (inconclusive) | EC50 [3]: > 160 µM (inactive) | EC50 [4]: 4.95 µM (active) | EC50 [5]: 2.47 µM (active)

CC1CCN(Cc2cnc(Cl)s2)CC1
IC50 [6]: 1.78 µM (not active)

CCc1cc(C(=O)Nc2ccc(OC)nc2)sc1C
EC50 [7]: 11.8 µM (active) | EC50 [8]: 9.29 µM (active)

CN1CCN(/C=N/C2=C(C#N)C(c3ccccc3)C3=C(CC(C)(C)CC3=O)O2)CC1 (stereo unspecified)
AC50 (Cytochrome P450 2C9): 14.1 µM (inconclusive) | EC50 [7]: > 300 µM (not active) | EC50 [8]: > 300 µM (not active)

CN(C)S(=O)(=O)c1ccc2c(c1)nc(CCC(=O)NCc1ccc(Cl)cc1)n2C
IC50 [6]: 6.82 µM (not active)

CC1(C)C(=O)OC(c2c(F)c(F)c(F)c(F)c2F)C2(CCCCC2)C1=O (stereo unspecified)
IC50 [6]: 4.17 µM (not active)

O=C(N/N=C/c1cccc(C(F)(F)F)c1)c1ccc(O)cc1
EC50 [1]: > 195 µM (not active)

CCN(CC)c1nc(-c2nnn[nH]2)nc(N(CC)CC)n1
EC50 [7]: > 300 µM (not active) | EC50 [8]: > 300 µM (not active)

Cc1cc2c3c(c1)C(C)CC(C)(C)N3C(=O)C2=O (stereo unspecified)
EC50 [7]: > 300 µM (not active) | EC50 [8]: > 300 µM (not active)

O=P(Nc1ccccc1)(Oc1ccccc1)Oc1ccccc1
IC50 (H9c2): > 79 µM (inactive)

CNC(=O)NC(=O)C(C)Oc1ccccc1F (stereo unspecified)
IC50 [6]: < 0.4 µM (not active)

O=C(Nc1ccc2c(c1)OCO2)c1cnn2c(C(F)(F)F)cc(-c3ccco3)nc12
IC50 (H9c2): > 79 µM (inactive)

Oc1ccccc1CN(Cc1ccco1)CC(O)COCc1ccc(Cl)cc1 (stereo unspecified)
IC50 [6]: 7.83 µM (not active)

COc1cc(/C=N/n2nnnc2Nc2ccccc2)cc(OC)c1OC
IC50 (H9c2): 12.4 µM (active)

C=CCSc1nnc(N2C(=O)C(O)=C(C(=O)c3ccco3)C2c2ccccc2F)s1 (stereo unspecified)
EC50 [7]: 48.3 µM (active) | EC50 [8]: 54.8 µM (active)

O=C1/C(=C/c2ccc(Br)cc2)Oc2cc(O)ccc21
EC50 [7]: 7.71 µM (active) | EC50 [8]: 6.67 µM (active)

CCCCOP(=O)(c1ccc(N(C)C)cc1)C(O)c1ccccc1F (stereo unspecified)
EC50 [3]: > 150 µM (inactive) | EC50 [4]: 2.56 µM (active)

O=C(O)CC1S/C(=N/N=C/c2ccc(Br)cc2)N(c2ccccc2)C1=O (stereo unspecified)
IC50 [6]: 9.55 µM (not active)

O=C(C1CCCO1)N1CCC2(CC1)OCCO2 (stereo unspecified)
EC50 [1]: > 195 µM (not active)

COc1cccc(CN(C)C(=O)C(Cc2ccccc2)NC(=O)c2ccccc2)c1OC (stereo unspecified)
IC50 (H9c2): 6.93 µM (active)

O=C(CSc1nc(-c2ccco2)cc(C(F)(F)F)n1)NCCc1ccccc1
EC50 [3]: 136 µM (inconclusive) | EC50 [4]: > 38 µM (not active)

Cc1cc(NC(=O)COC(=O)[C@H](C)NC(=O)c2ccccc2)no1
EC50 [1]: > 195 µM (not active)

CC(C)CCNC(=O)NC(=O)CSc1nnc(-c2ccccc2Br)o1
IC50 [6]: > 50 µM (not active)

Cc1ccccc1Nc1scc(-c2ccc(Cl)cc2)[n+]1-c1ccccc1C
IC50 [6]: > 50 µM (not active)

CSCc1cc(N2CCOCC2)nc(SCc2ccc(Cl)cc2Cl)n1
IC50 [6]: 3.57 µM (not active)

O=C(NC1CCCCC1)C(c1ccc2ncccc2c1)N(Cc1cccs1)C(=O)c1cccs1 (stereo unspecified)
IC50 (H9c2): > 79 µM (inactive)

CC(C)CC(=O)Nc1ccc(C(=O)COC(=O)Cc2nnc(O)c3ccccc23)cc1
IC50 (H9c2): 18.4 µM (active)

C=CCN1C(=O)NC(=O)/C(=C(/C)NC2CCN(Cc3ccccc3)CC2)C1=O
EC50 [1]: > 195 µM (not active)

CCCCC1=CC2=CC(=O)C(C)(OC(=O)c3ccco3)C(=O)C2=CO1 (stereo unspecified)
EC50 [7]: 20.5 µM (active) | EC50 [8]: 16.2 µM (active)

O=C(CSc1ccc2nnc(-c3ccncc3)n2n1)Nc1nccs1
IC50 [6]: > 50 µM (not active)

CCCCN1C(=O)NC(=O)/C(=C\NNC(=O)c2ccncc2)C1=O
EC50 [7]: > 300 µM (not active) | EC50 [8]: > 300 µM (not active)

Cc1ccc(S(=O)(=O)NNC(=S)NC(=O)c2ccc([N+](=O)[O-])cc2)cc1
EC50 [7]: 31.8 µM (active) | EC50 [8]: 21.1 µM (active)

Oc1nc2cc3c(cc2cc1CN(Cc1nnnn1CC1CCCO1)C1CCCCC1)OCO3 (stereo unspecified)
IC50 (H9c2): 27.5 µM (active)

COc1ccc(CCNC(=O)C(=O)NCC2CCCN2S(=O)(=O)c2cc(C)ccc2C)cc1 (stereo unspecified)
IC50 (H9c2): 34.1 µM (inactive)

COc1ccc(NS(=O)(=O)c2cc(NC(=O)Cc3nnc(O)c4ccccc34)ccc2OC)cc1
IC50 (H9c2): > 79 µM (inactive)

CCCc1cc(=O)oc2c(CNc3ccc(OCC)cc3)c(O)ccc12
IC50 (H9c2): > 79 µM (inactive)

CC(C)CCN(C(=S)NC(=O)C1CCCCC1)c1c(N)n(Cc2ccccc2)c(=O)[nH]c1=O
IC50 [6]: > 50 µM (not active)

O=C(COc1ccccc1C(=O)c1cnn(-c2ccccc2)c1)Nc1ccc2ccccc2c1
EC50 [9]: 6.97 µM (active) | EC50 [10]: 5.67 µM (active) | EC50 [11]: > 53 µM (inactive) | IC50 [12]: > 47.1 µM (inactive) | EC50 (H4): 7.44 µM (active)

CCC(C)n1c(=N)c(C#N)cc2c(=O)n3cc(C)ccc3nc21 (stereo unspecified)
EC50 [7]: > 300 µM (not active) | EC50 [8]: 254 µM (inconclusive)

CCOC(=O)c1c(NC(=O)COC(=O)Cc2nnc(O)c3ccccc23)sc(C(=O)NC)c1C
IC50 (H9c2): > 79 µM (inactive)
